Laboratory results: patent publication US20140120083A1, “TREATMENT OF CANCERS USING PI3 KINASE ISOFORM MODULATORS” (INFINITY PHARMACEUTICALS, INC., priority 2012, published 2014)

How the values were obtained:
PI3K γ = target: T1, PI3K γ (Homo sapiens, UniProt P48736); experiment: In vitro IC50, PI3K γ; type: biochemical
T1 construct: purchased Sigma
Excerpt: (§1) An exemplary system is PI 3-Kinase (human) HTRF™ Assay from Upstate.

PI3K α = target: T2, PI3K α (Homo sapiens, UniProt P42336); experiment: In vitro IC50, PI3K α; type: biochemical
T2 construct: purchased Upstate
T2 sequence (P42336 whole entry): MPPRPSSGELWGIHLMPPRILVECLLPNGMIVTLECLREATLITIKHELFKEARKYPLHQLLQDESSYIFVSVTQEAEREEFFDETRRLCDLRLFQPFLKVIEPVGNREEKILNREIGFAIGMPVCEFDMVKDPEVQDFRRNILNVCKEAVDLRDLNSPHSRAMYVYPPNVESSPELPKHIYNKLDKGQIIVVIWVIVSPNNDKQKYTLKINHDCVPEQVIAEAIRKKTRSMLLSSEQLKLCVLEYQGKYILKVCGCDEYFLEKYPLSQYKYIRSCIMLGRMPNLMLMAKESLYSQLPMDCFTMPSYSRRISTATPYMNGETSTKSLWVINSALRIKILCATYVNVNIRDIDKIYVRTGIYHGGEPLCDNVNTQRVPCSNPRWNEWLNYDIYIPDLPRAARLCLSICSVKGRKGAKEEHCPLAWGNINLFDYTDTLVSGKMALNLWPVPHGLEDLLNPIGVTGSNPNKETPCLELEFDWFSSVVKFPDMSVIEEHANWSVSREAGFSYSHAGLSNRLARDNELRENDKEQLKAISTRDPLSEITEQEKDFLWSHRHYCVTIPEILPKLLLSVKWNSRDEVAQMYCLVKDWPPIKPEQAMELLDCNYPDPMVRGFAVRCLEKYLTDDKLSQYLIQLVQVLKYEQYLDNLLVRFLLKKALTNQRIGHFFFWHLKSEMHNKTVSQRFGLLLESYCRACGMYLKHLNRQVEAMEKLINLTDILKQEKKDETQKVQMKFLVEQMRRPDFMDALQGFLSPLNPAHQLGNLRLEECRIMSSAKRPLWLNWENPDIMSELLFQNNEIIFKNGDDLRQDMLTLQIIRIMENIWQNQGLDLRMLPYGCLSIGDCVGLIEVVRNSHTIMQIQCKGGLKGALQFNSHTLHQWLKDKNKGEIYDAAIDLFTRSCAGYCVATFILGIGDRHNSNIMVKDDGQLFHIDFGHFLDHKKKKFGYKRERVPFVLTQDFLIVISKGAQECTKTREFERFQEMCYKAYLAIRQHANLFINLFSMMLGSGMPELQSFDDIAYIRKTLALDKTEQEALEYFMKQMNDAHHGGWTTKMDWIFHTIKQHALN
T2 sequence (P27986 whole entry partner): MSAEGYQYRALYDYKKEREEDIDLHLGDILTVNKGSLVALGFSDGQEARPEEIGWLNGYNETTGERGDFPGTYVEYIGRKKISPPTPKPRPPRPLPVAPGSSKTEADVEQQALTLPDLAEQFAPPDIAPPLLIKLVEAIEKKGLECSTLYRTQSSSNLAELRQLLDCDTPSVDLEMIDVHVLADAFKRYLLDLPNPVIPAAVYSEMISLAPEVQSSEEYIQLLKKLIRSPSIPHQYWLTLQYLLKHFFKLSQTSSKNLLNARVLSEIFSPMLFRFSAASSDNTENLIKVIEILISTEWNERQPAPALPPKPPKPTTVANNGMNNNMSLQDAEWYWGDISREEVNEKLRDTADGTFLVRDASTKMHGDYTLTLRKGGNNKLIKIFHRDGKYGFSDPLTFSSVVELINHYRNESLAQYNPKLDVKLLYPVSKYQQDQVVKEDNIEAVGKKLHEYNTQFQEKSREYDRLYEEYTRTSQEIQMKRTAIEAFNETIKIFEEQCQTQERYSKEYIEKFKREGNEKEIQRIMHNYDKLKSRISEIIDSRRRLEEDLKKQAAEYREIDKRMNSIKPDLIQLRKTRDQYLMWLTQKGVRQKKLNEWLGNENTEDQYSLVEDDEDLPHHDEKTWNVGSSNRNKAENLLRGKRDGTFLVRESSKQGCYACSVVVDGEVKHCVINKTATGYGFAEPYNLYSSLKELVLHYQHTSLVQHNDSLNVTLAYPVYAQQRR
Excerpt: as §1

B cell = B cell proliferation; type: cell-based
PI3K δ = PI3K δ (Homo sapiens, UniProt O00329); experiment: In vitro IC50, PI3K δ; type: biochemical; design: purchased Upstate
Sequence of PI3K δ (O00329 whole entry): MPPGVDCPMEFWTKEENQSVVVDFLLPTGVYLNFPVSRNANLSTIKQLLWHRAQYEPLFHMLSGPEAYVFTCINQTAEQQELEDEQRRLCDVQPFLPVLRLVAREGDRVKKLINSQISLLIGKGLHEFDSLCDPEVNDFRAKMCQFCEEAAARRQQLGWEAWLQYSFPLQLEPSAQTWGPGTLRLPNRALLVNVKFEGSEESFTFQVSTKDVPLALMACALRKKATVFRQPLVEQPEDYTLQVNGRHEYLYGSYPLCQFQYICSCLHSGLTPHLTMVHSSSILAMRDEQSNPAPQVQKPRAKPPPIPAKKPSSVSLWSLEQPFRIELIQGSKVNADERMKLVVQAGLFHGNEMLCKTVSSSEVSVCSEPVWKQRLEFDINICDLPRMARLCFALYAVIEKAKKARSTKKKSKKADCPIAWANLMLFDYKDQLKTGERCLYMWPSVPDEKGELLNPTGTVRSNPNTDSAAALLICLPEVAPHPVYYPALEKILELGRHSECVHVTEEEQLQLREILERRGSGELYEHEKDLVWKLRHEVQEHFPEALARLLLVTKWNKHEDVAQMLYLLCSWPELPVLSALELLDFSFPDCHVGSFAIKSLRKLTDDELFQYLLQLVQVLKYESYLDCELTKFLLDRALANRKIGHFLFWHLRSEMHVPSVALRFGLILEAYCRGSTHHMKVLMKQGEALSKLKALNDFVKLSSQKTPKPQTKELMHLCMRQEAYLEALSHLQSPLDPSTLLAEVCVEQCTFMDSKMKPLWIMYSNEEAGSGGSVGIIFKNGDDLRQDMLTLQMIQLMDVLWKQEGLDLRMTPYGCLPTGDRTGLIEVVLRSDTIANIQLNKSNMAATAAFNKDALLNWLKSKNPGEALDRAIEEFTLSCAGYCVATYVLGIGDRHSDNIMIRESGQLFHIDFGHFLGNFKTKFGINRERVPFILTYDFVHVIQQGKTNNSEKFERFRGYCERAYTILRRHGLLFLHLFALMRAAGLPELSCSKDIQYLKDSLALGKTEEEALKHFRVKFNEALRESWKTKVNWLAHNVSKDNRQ
Sequence of PI3K δ (P27986 whole entry partner): as the sequence (P27986 whole entry partner) above
Excerpt: as §1

PI3K β = PI3K β (Homo sapiens, UniProt P42338); experiment: In vitro IC50, PI3K β; type: biochemical
Sequence of PI3K β (P42338 whole entry): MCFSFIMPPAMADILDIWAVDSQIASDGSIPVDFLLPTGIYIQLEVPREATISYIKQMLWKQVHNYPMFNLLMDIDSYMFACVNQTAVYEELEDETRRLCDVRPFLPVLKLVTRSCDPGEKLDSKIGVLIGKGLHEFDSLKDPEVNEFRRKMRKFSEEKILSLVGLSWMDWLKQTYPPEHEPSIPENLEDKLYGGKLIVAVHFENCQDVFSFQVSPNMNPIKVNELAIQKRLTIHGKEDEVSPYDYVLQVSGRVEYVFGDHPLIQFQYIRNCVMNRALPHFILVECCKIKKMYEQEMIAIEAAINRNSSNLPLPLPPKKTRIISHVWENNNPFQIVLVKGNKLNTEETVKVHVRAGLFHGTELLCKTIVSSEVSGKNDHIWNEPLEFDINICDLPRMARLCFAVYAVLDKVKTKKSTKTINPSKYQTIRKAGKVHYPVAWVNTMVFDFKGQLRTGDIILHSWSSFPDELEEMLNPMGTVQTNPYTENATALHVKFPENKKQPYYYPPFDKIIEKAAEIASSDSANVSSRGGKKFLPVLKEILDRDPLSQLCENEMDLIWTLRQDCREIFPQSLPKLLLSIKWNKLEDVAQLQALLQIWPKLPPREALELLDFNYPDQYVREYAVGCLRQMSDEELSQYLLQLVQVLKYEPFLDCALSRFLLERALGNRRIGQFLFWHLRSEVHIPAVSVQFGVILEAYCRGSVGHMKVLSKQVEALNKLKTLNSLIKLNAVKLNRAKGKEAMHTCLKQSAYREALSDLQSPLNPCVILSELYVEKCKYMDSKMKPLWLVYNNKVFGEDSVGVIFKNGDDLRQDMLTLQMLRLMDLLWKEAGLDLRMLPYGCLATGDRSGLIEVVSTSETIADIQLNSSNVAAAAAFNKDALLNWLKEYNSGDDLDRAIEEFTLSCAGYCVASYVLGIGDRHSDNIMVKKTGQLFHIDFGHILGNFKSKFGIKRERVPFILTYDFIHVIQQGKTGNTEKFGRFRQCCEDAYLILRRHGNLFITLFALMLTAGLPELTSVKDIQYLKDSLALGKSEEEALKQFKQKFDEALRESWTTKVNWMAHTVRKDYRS
Excerpt: as §1

T1 sequence (P48736 whole entry): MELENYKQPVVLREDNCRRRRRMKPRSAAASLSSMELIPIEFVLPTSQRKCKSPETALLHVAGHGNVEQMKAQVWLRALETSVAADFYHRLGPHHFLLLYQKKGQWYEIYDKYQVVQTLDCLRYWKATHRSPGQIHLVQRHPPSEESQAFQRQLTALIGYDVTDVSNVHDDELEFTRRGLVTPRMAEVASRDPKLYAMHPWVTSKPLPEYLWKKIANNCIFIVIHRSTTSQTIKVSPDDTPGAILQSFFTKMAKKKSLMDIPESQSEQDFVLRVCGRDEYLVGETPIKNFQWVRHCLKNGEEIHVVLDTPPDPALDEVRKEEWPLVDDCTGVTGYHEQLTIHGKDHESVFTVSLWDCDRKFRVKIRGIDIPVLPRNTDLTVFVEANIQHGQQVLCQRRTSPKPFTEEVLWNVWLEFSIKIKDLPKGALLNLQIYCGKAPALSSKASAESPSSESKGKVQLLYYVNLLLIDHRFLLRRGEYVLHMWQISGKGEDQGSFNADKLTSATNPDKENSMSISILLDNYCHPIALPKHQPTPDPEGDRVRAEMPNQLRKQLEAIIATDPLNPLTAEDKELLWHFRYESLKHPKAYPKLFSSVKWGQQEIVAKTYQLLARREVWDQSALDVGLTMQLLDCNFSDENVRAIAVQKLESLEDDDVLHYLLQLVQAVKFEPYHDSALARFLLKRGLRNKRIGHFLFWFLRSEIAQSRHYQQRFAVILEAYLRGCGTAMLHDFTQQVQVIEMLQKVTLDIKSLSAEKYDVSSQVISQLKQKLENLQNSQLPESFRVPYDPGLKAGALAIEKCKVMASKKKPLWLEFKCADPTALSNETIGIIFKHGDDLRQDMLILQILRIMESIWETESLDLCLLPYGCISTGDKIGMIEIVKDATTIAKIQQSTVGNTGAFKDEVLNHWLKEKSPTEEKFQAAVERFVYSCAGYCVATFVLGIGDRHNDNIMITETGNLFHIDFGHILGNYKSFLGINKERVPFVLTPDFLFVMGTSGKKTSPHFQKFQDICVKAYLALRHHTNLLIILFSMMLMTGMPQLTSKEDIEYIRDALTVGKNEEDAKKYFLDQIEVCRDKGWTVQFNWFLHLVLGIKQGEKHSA

Row | SMILES | IC50 (PI3K γ) [µM] | IC50 (PI3K α) [µM] | EC50 (B cell) [µM] | IC50 (PI3K δ) [µM] | IC50 (PI3K β) [µM]
1 | Cc1ccccc1-n1c(Cn2nc(I)c3c(N)ncnc32)cc2cccc(C)c2c1=O [Compound 6] | < 0.1 | > 10 | < 0.1 | < 0.1 | 
2 | Cc1cccc2cc([C@H](C)Nc3ncc(C(F)(F)F)c(N)n3)n(-c3ccccc3)c(=O)c12 [Compound 325] | > 10 | > 10 |  | < 10 | > 10
